“Also recorded” adds a separate entry of the source.
Test system: C26 colorectal carcinoma liver metastases
Experiment: Mouse model of hepatic ischemia/reperfusion (I/R)-accelerated outgrowth of C26 colorectal liver metastases
Assay type: in vivo, mouse (male Balb/C)
Settings: for ratio of hepatic replacement area (HRA) values in ischemic (clamped) left liver lobes versus non-ischemic right and median liver lobes: FIG. 4, I/R-subjected mice, day 10, sham about 1, untreated I/R about 2.5-fold; for accelerated (necrosis-associated) tumor growth in the clamped left liver lobes following I/R: left lobar I/R on day 5, livers day 10, ZM241385 1 micro-g/kg bolus + 10 ng/kg/min minipump, 3 days
Description: A mouse model has been enabled in which selective temporary occlusion of blood flow into the left liver lobe results in a profound acceleration of tumor growth in the clamped liver lobes, but not in the unclamped liver lobes. An A2A receptor agonist was then studied to determine its effect on the accelerated tumor growth.
• Male Balb/C mice (10-12 weeks) are housed under standard laboratory conditions with free access to water and chow and a 12-hour dark-light cycle. 2. Before the Experiment: Cell Culture • The murine colon carcinoma cell line C26 is cultured in Dulbecco's modified Eagle's medium supplemented with 5% heat-inactivated fetal calf serum, penicillin (100 units/ml) and streptomycin (100 μg/ml) in a 5% carbon dioxide environment. 3. Day 0: Induction of Liver Metastases • Confluent cultures of the C26 cell line are harvested by brief trypsinization (0.05 trypsin in 0.02% EDTA). • After centrifugation, single cell suspensions are prepared in PBS to a final concentration of 5×10^4 cells/100 μl. • Cell viability is determined by trypan blue staining, and should be ≧98%. • The induction of liver metastases is performed under inhalation anesthesia with a 1.5-2% isoflurane/O2 mixture using a mask. • Buprenorfine (3 μg/mouse) is administered intramuscularly prior to surgery to provide sufficient intra- and postoperative analgesia. • Surgical procedures are performed under aseptic conditions. • Body temperature is maintained at 36.5-37.5° C. by placing the animals on a heated table and covering them by aluminium foil. • Through a left lateral flank incision, 5×10^4 C26 colorectal carcinoma cells are injected into the splenic parenchyma (within an hour after trypsinisation). • After ten minutes, the spleen is removed to prevent intrasplenic tumor growth. • After the procedure a small amount of saline is left in the abdominal cavity and the peritoneum and skin are separately closed with 5.0 vicryl. • Animals are allowed to recover from anesthesia under standard laboratory conditions and are allowed free access to water and chow. 4. Day 0-5: • Micrometastases are allowed to develop throughout the liver for 5 days. 5. Day 5: Marine Model of Hepatic I/R • The induction of hepatic I/R is performed under inhalation anesthesia with a 1.5-2% isoflurane/O2 mixture using a mask. • Buprenorfine (3 μg/mouse) is administered intramuscularly prior to surgery to provide sufficient intra- and postoperative analgesia. • Surgical procedures are performed under aseptic conditions. • Body temperature is maintained at 36.5-37.5° C. by placing the animals on a heated table and covering them by aluminium foil. • ATL-313 solutions are prepared and suspended in osmotic minipumps (Alzet) at a dose of 3 ng/kg/min. Minipumps are placed in normal saline at 37° C. for at least 4 hours prior to the operation, to allow immediate drug delivery. • After laparotomy, mice receive an intraperitoneal bolus injection of 1 ng/kg ATL-313. • A control group received the A2AR antagonist ZM241385 as an intraoperative bolus (1 micro-g/kg) and subsequently continuously using osmotic intraperitoneal minipumps (10 ng/kg/min; 3 days). • Sham operated mice undergo laparotomy with exposure of the liver but without interruption of hepatic flow. • Partial hepatic I/R is induced by occluding the vascular inflow of the left lateral liver lobe for 45 minutes, corresponding to approximately 40% of the liver mass. • Surgical foil is placed over the laparotomy wound to avoid dehydration. • After removal of the clamps a small amount of saline is left in the abdominal cavity • The peritoneum and skin are separately closed with 5.0 vicryl. 6. Day 5-10: • Micrometastases are allowed to grow out to macrometastases (approximately 10-20% of the non-clamped lobes at day 10) for 5 days 7. Day 10: • Livers were harvested, fixed in formalin, and embedded in paraffin. Tissue sections were stained with H&E and the following parameters were assessed by an operator who was blinded to treatment. • 1. […]

[1] = ATL-313 1 ng/kg bolus + 3 ng/kg/min minipump

Compound: Nc1nc(NCCc2ccc(O)cc2)nc2nc(-c3ccco3)nn12 [ZM241385, reference compound]
- ratio of hepatic replacement area (HRA) values in ischemic (clamped) left liver lobes versus non-ischemic right and median liver lobes: increasing the left-to-right/median ratio, although this difference did not reach statistical significance
- accelerated (necrosis-associated) tumor growth in the clamped left liver lobes following I/R [1]: appears to aggravate tumor growth

Compound: COC(=O)N1CCC(CC#Cc2nc(N)c3ncn(C4OC(C(=O)NC5CC5)C(O)C4O)c3n2)CC1 (stereo not shown) [ATL313, 4-{3-[6-Amino-9-(5-cyclopropylcarbamoyl-3,4-dihydroxy-tetrahydro-furan-2-yl)-9H-purin-2-yl]-prop-2-ynyl}-piperidine-1-carboxylic Acid methyl ester]
- ratio of hepatic replacement area (HRA) values in ischemic (clamped) left liver lobes versus non-ischemic right and median liver lobes: 1
- tissue necrosis (liver) (left lobar I/R on day 5 (45 min clamping), livers harvested day 10, H&E, ATL-313 1 ng/kg i.p. bolus + 3 ng/kg/min osmotic minipump): prevents; also recorded: almost completely prevented
- accelerated (necrosis-associated) tumor growth in the clamped left liver lobes following I/R [1]: prevents; also recorded: almost completely prevented
- accelerated (necrosis-associated) tumor growth in the clamped left liver lobes following I/R (ATL-313 1 ng/kg bolus + 3 ng/kg/min minipump, listed as ATL): prevents the increase in tumor growth
- inflammation following I/R (left lobar I/R on day 5, ATL-313 1 ng/kg bolus + 3 ng/kg/min minipump): almost completely prevented

Reference: US8551972B2, “Agonists of A2A adenosine receptors for treating recurrent tumor growth” (Adenosine Therapeutics, LLC, priority 2007, dated 2013)
